# Results taken from patent US10844032B2, “Substituted benzofuran, benzothiophene and indole Mcl-1 inhibitors” (Vanderbilt University, priority 2012, dated 2020).
# Target: recombinant Mcl-1 (residues 172-327) (Homo sapiens (Human), UniProt Q07820)
# Test: Bak peptide fluorescence polarization anisotropy competition assay, Mcl-1
# Type: binding
# Details: not given
# recombinant Mcl-1 (residues 172-327), sequence (Q07820 172-327): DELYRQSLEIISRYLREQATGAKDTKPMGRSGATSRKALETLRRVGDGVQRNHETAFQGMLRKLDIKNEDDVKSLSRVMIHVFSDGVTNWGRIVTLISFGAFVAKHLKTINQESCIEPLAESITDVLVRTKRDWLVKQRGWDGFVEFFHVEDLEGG
row,Structure (SMILES),Ki
1,"Cc1cc(OCCCc2c(C(=O)NS(=O)(=O)CCNC(=O)c3cn(Cc4ccccc4)c4ccccc34)[nH]c3ccccc23)cc(C)c1Cl [Example 201, N-((2-(1-benzyl-1H-indole-3-carboxamido)ethyl)sulfonyl)-3-(3-(4-chloro-3,5-dimethylphenoxy)propyl)-1H-indole-2-carboxamide]",101 to 299 nM

# Same assay, conditions: read-out: Ki for inhibition of Mcl-1
row,Ki,Structure (SMILES)
1,1000 to 9990 nM,"Cc1cc(OCCCc2c(C(=O)NS(=O)(=O)CCNC(=O)c3cc(F)cc(F)n3)[nH]c3ccccc23)cc(C)c1Cl [Example 191, 3-(3-(4-chloro-3,5-dimethylphenoxy)propyl)-N-((2-(4,6-difluoropicolinamido)ethyl)sulfonyl)-1H-indole-2-carboxamide]"
2,301 to 500 nM,"Cc1cc(OCCCc2c(C(=O)NS(=O)(=O)CCNC(=O)c3cc(C)n(C)c3C)[nH]c3ccccc23)cc(C)c1Cl [Example 192, 3-(3-(4-chloro-3,5-dimethylphenoxy)propyl)-N-((2-(1,2,5-trimethyl-1H-pyrrole-3-carboxamido)ethyl)sulfonyl)-1H-indole-2-carboxamide]"
3,101 to 299 nM,"Cc1cc(OCCCc2c(C(=O)NS(=O)(=O)CCNC(=O)c3cc(C)n(C4CC4)c3C)[nH]c3ccccc23)cc(C)c1Cl [Example 193, 3-(3-(4-chloro-3,5-dimethylphenoxy)propyl)-N-((2-(1-cyclopropyl-2,5-dimethyl-1H-pyrrole-3-carboxamido)ethyl)sulfonyl)-1H-indole-2-carboxamide]"
4,101 to 299 nM,"Cc1cc(OCCCc2c(C(=O)NS(=O)(=O)CCNC(=O)c3cc(C)n(Cc4ccccc4)c3C)[nH]c3ccccc23)cc(C)c1Cl [Example 194, N-((2-(1-benzyl-2,5-dimethyl-1H-pyrrole-3-carboxamido)ethyl)sulfonyl)-3-(3-(4-chloro-3,5-dimethylphenoxy)propyl)-1H-indole-2-carboxamide]"
5,101 to 299 nM,"Cc1cc(OCCCc2c(C(=O)NS(=O)(=O)CCNC(=O)c3cc(C)n(Cc4ccncc4)c3C)[nH]c3ccccc23)cc(C)c1Cl [Example 195, 3-(3-(4-chloro-3,5-dimethylphenoxy)propyl)-N-((2-(2,5-dimethyl-1-(pyridin-4-ylmethyl)-1H-pyrrole-3-carboxamido)ethyl)sulfonyl)-1H-indole-2-carboxamide]"
6,301 to 500 nM,"Cc1cc(OCCCc2c(C(=O)NS(=O)(=O)CCNC(=O)c3ccc4c(ccn4C)c3)[nH]c3ccccc23)cc(C)c1Cl [Example 196, 3-(3-(4-chloro-3,5-dimethylphenoxy)propyl)-N-((2-(1-methyl-1H-indole-5-carboxamido)ethyl)sulfonyl)-1H-indole-2-carboxamide]"
7,501 to 999 nM,"Cc1cc(OCCCc2c(C(=O)NS(=O)(=O)CCN3C(=O)c4ccccc4C3=O)[nH]c3ccccc23)cc(C)c1Cl [Example 197, 3-(3-(4-chloro-3,5-dimethylphenoxy)propyl)-N-((2-(1,3-dioxoisoindolin-2-yl)ethyl)sulfonyl)-1H-indole-2-carboxamide]"
8,501 to 999 nM,"CC(=O)NCCS(=O)(=O)NC(=O)c1[nH]c2ccccc2c1CCCOc1cc(C)c(Cl)c(C)c1 [Example 198, N-((2-acetamidoethyl)sulfonyl)-3-(3-(4-chloro-3,5-dimethylphenoxy)propyl)-1H-indole-2-carboxamide]"
9,301 to 500 nM,"Cc1cc(OCCCc2c(C(=O)NS(=O)(=O)CCNC(=O)NC3CCCCC3)[nH]c3ccccc23)cc(C)c1Cl [Example 199, 3-(3-(4-chloro-3,5-dimethylphenoxy)propyl)-N-((2-(3-cyclohexylureido)ethyl)sulfonyl)-1H-indole-2-carboxamide]"
10,101 to 299 nM,"Cc1cc(OCCCc2c(C(=O)NS(=O)(=O)CCNC(=O)c3cccn3Cc3ccccc3)[nH]c3ccccc23)cc(C)c1Cl [Example 200, N-((2-(1-benzyl-1H-pyrrole-2-carboxamido)ethyl)sulfonyl)-3-(3-(4-chloro-3,5-dimethylphenoxy)propyl)-1H-indole-2-carboxamide]"
